The values below come from patent US5789419A, “4-quinolinone derivative or salt thereof” (SS Pharmaceutical Co., Ltd., priority 1994, dated 1998).

This assay relates to endothelium-ablated specimen of rat thoracic aorta. Put plainly: Effect of inhibiting contraction caused by 30 mM K on endothelium-ablated specimen of rat thoracic aorta. Particulars: 10 min, cumulative application at intervals of 10 minutes, 37° C., 10^-4 M papaverine = 100% relaxation, read-out: median inhibitory concentration (IC50). In kind it is cell-based. As for the experimental part: (Effect of inhibiting contraction caused by 30 mM K on endothelium-ablated specimen of rat thoracic aorta)
A thoracic aorta was enucleated from a rat (weight: 129-492 g) and cut into lengths of 3 mm. Cotton in the form of a paper string was put in a lumen of each of ring specimens, and the inner surface of the ring specimen was rubbed several times with the cotton, thereby ablating an endothelium from the thoracic aorta specimen. This specimen was incubated at 37° C. and suspended in 10 ml of a Krebs-Henseleit solution, into which a mixed gas had been introduced, with a load of 2 g applied thereto. The tension thereof was isometrically recorded in a recorder through an FD transducer and a dynamic strain gage. After at least 60 minutes went on after the suspension, and the sample was stabilized, 10^-7 M noradrenaline was applied several times to the specimen. Under contraction caused by 10^-7 M noradrenaline, 10^-7 M acetylcholine was applied to the specimen. A specimen which manifested no relaxing effect at this time was used in an experiment as an endothelium-ablated specimen. Each of agents (compounds of Compound Numbers shown in Table 20 and Cromakalim) to be tested was cumulatively applied at intervals of 10 minutes from the time 30 mM K^+ had been applied to such a specimen, and the contraction of the specimen had been fixed, thereby calculating a median inhibitory concentration (IC50). Incidentally, 10^-4 M papaverine was applied to confirm 100% relaxing affect. The agents to be tested were dissolved (5×10^-2 M in dimethyl sulfoxide and diluted with purified water before their use.
With `CC1(C)Oc2ccc(C#N)cc2[C@@H](N2CCCC2=O)[C@@H]1O` (racemic) [Cromakalim, (±)-trans-6-cyano-2,2-dimethyl-4-(2-oxopyrrolidin-1-yl)-3,4-dihydro-2H-1-benzopyran-3-ol, reference compound], the IC50 is 130 nM. For the compound `CC(=O)NN1CC(C)(C)C(=O)c2ccc(S(=O)(=O)C(F)(F)F)cc21` [Compound No. 44, 1-Acetoamino-2,3-dihydro-3,3-dimethyl-7-(trifluoromethyl) sulfonyl-4(1H)-quinolinone], the IC50 came to 18.8 nM.

For `CC(=O)NN1CC(C)(C)C(=O)c2ccc(S(=O)(=O)c3ccccc3)cc21` [Compound No. 53, 1-Acetoamino-2,3-dihydro-3,3-dimethyl-7-phenylsulfonyl-4(1H)-quinolinone], the IC50 stood at 83.2 nM.

Regarding `CC1(C)CN(N2CCCC2=O)c2cc(S(=O)(=O)c3ccccc3)ccc2C1=O` [Compound No. 63, 2,3-Dihydro-3,3-dimethyl-7-phenylsulfonyl-1-(2-oxopyrrolidin-1-yl)-4(1H)-quinolinone], the IC50 came to 86.9 nM. Regarding `CC(=O)NN1CC(C)(C)C(=O)c2ccc(C(F)(F)F)cc21` [compound 21], the IC50 was 100 nM.

Turning to `CC1(C)CN(NC(=O)c2cccnc2)c2cc(C(F)(F)F)ccc2C1=O` [compound 23], the IC50 is 66.2 nM.

`CC(=O)NN1CC(C)(C)C(=O)c2ccc(OC(F)(F)F)cc21` [compound 28]: the IC50 worked out at 48.2 nM. As to `CCC(=O)NN1CC(C)(C)C(=O)c2ccc(OC(F)(F)F)cc21` [compound 29], the IC50 came to 104 nM. For the compound `CC1(C)CN(NC(=O)c2cccnc2)c2cc(OC(F)(F)F)ccc2C1=O` [compound 30], the IC50 amounted to 49.2 nM.
